Experiments:
[1] = test system: Panc 05.04 cells: Pancreatic cancer cells (Q699H and K700E mutations in SF3B1); assay: Cell viability assay (CellTiter-Glo), Panc 05.04 cells; format: cell-based; details: 72 hr; for Gl50 Panc 05.04: Panc 05.04 pancreatic cancer cells, SF3B1 Q699H and K700E, CellTiter-Glo; for Emax Panc 05.04: highest growth inhibition achieved in tested dose range
Method: (§1) Cells are seeded in 96-well plate with 2000 cells/100 uL/well and incubated overnight. Spent media was removed and fresh media containing compound (100 uL/well) with appropriate 9 concentrations are added. Each compound was treated in duplicate or triplicate manner at each concentration. DMSO concentration was adjusted to be 0.1%. Another plate was dedicated as Tz plate which was added 0.1% DMSO in media (100 uL/well) followed by CellTiter-Glo® (Promega corp., 50 uL/well) for ATP measurement as a surrogate of cell viability. Values from this plate are used as Tz. Compound treated plates are incubated for 72 hr at 37 C. Then, CellTiter-Glo® (50 uL/well) was added and ATP level was measured. Values from compound treated wells are used as Ti and DMSO treated wells are used as C.
(§2) Percentage growth inhibition was calculated as:
(§3) [(Ti−Tz)/(C−Tz)]×100 for concentrations for which Ti>/=Tz
(§4) [(Ti−Tz)/Tz]×100 for concentrations for which Ti<Tz.
(§5) *[time zero, (Tz), control growth (C), and test growth in the presence of drug with dose (Ti)] Growth inhibition of 50% (GI50) was calculated from [(Ti−Tz)/(C−Tz)]×100=50, which was the drug concentration resulting in a 50% reduction in the net protein increase in control cells during the drug incubation. The LC50 (concentration of drug resulting in a 50% reduction in the measured value at the end of the drug treatment as compared to that at the beginning) indicating a net loss of cells following treatment was calculated from [(Ti−Tz)/Tz]×100=−50.
(§6) Emax was defined as highest growth inhibition that particular compound achieved in tested dose range.

[2] = test system: WiDr-R cells: Colon cancer cells (chemically-induced SF3B1 mutant which is resistant to E7107 (R1074H mutation)); assay: Cell viability assay (CellTiter-Glo), WiDr-R cells; format: cell-based; details: 72 hr
Method: as §1, §2, §3, §4, §5, §6

[3] = test system: Ad2 pre-mRNA splicing in HeLa nuclear extract; assay: In vitro splicing (biochemical) assay; details: in vitro splicing of Ad2 pre-mRNA, 30° C., 90 min, read-out: Biochem IC50
Method: In Vitro Splicing (Biochemical) Assay Protocol
Biotin-labeled pre-mRNA of an adenovirus type 2 construct with a deletion of intervening sequence (Ad2)^1 was prepared by in vitro transcription. The Ad2 construct containing Exon 1 (41 nt), Intron (231 nt), and Exon 2 (72 nt) was generated by gene synthesis and cloned into the EcoRI and XbaI sites of pGEM-3Z (Promega) by Genewiz. The plasmid was then linearized by XbaI digestion and purified. In vitro transcription and purification of transcribed pre-mRNA were performed using the MEGAScript T7 kit (Invitrogen) and MEGAclear kit (Invitrogen), respectively, following the manufacturer instructions. The ratio of biotin-16-UTP (Roche) to cold UTP was 1:13 to incorporate approximately two biotin molecules per spliced Ad2 mRNA.
In vitro splicing assay was performed at 30° C. in 25 μL reaction mixtures containing 95 μg HeLa nuclear extract (Promega), 47 nM Ad2 pre-mRNA, 25 U RNasin RNase inhibitor (Promega), 1×SP buffer (0.5 mM ATP, 20 mM creatine phosphate, 1.6 mM MgCl2), and compounds in DMSO (with 1% final concentration of DMSO). After 90 min of incubation, the reaction was stopped by addition of 18 μL of 5M NaCl, and the mixtures were incubated with 10 μL of M-280 streptavidin-coated magnetic beads (Invitrogen) for 30 min at room temperature to capture Ad2 pre- and spliced mRNA. The beads were washed twice with 100 uL buffer containing 10 mM Tris pH=7.5, 1 mM EDTA and 2M NaCl, and then incubated in RNA gel loading buffer containing 95% formamide at 70° C. for 10 min to elute the RNAs. Ad2 RNAs were resolved by 6% TBE-UREA gel, transferred to a nylon membrane, UV cross-linked, and probed with an IR-dye labeled streptavidin (LiCor) using LiCor detection. The amount of spliced RNA was quantified by measuring the band fluorescent intensity using LiCor software.

[4] = test system: WiDr cells: Colon cancer cells (wildtype SF3B1); assay: Cell viability assay (CellTiter-Glo), WiDr cells; format: cell-based; details: 72 hr
Method: as §1, §2, §3, §4, §5, §6

Row | IC50 [3] [nM] | SMILES | Gl50 Panc 05.04 [1] [nM] | Emax Panc 05.04 [1] [%] | Gl50 WiDr-R [2] [nM] | Gl50 WiDr [4] [nM]
1 | 10 | CC[C@H](O)[C@@H](C)[C@H]1O[C@@H]1C[C@H](C)/C=C/C=C(\C)[C@H]1OC(=O)C[C@H](O)CC[C@@](C)(O)[C@@H](OC(=O)N2CC[N+](C)(C3CCCCCC3)CC2)/C=C/[C@@H]1C.[I-] [Cpd. 1] | 0.6 | −61 | 368 | 1.1
2 | 50 | CC[C@H](O)[C@@H](C)[C@H]1O[C@@H]1C[C@H](C)/C=C/C=C(\C)[C@H]1OC(=O)C[C@H](O)CC[C@@](C)(O)[C@@H](OC(=O)N2CC[N+](C)(C)CC2)/C=C/[C@@H]1C.[I-] [Cpd. 2] | 17.0 | −69 | >1000 | 8.9
3 | – | CC[C@H](O)[C@@H](C)[C@H]1O[C@@H]1C[C@H](C)/C=C/C=C(\C)[C@H]1OC(=O)C[C@H](O)CC[C@@](C)(O)[C@@H](OC(=O)NCCC[N+]2(C)CCOCC2)/C=C/[C@@H]1C.[I-] [Cpd. 4] | 41.5 | −75 | – | 67.4
4 | – | CC[C@H](O)[C@@H](C)[C@H]1O[C@@H]1C[C@H](C)/C=C/C=C(\C)[C@H]1OC(=O)C[C@H](O)CC[C@@](C)(O)[C@@H](OC(=O)NCCC[N+](C)(C)C)/C=C/[C@@H]1C.[I-] [Cpd. 5] | 120.8 | −79 | >10000 | 176.0
5 | – | CC[C@H](O)[C@@H](C)[C@H]1O[C@@H]1C[C@H](C)/C=C/C=C(\C)[C@H]1OC(=O)C[C@H](O)CC[C@@](C)(O)[C@@H](OC(=O)N2CC[N+](C)(C3CCCCC3)CC2)/C=C/[C@@H]1C.[I-] [Cpd. 6] | 1593 | −8.1 | >1000 | 227.0
6 | – | CC[C@H](O)[C@@H](C)[C@H]1O[C@@H]1C[C@H](C)/C=C/C=C(\C)[C@H]1OC(=O)C[C@H](O)CC[C@@](C)(O)[C@@H](OC(=O)N2CCC[N+](C)(C)CC2)/C=C/[C@@H]1C.[I-] [Cpd. 8] | 431.6 | −74 | >1000 | 568.0
7 | – | CC[C@H](O)[C@@H](C)[C@H]1O[C@@H]1C[C@H](C)/C=C/C=C(\C)[C@H]1OC(=O)C[C@H](O)CC[C@@](C)(O)[C@@H](OC(=O)N2CCC[N+](C)(C3CCCCC3)CC2)/C=C/[C@@H]1C.[I-] (stereo partly shown) [Cpd. 11] | 410.7 | −87 | >1000 | 958.0
8 | – | CC[C@H](O)[C@@H](C)[C@H]1O[C@@H]1C[C@H](C)/C=C/C=C(\C)[C@H]1OC(=O)C[C@H](O)CC[C@@](C)(O)[C@@H](OC(=O)N2CC3(C2)C[N+](C)(C2CCCCCC2)C3)/C=C/[C@@H]1C.[I-] [Cpd. 12] | 79.2 | −89 | >1000 | 106.0
9 | – | CC[C@H](O)[C@@H](C)[C@H]1O[C@@H]1C[C@H](C)/C=C/C=C(\C)[C@H]1OC(=O)C[C@H](O)CC[C@@](C)(O)[C@@H](OC(=O)N2CCC([N+]3(C)CCCC3)CC2)/C=C/[C@@H]1C.[I-] [Cpd. 13] | 80.4 | −61 | >1000 | 44.1
10 | – | CC[C@H](O)[C@@H](C)[C@H]1O[C@@H]1C[C@H](C)/C=C/C=C(\C)[C@H]1OC(=O)C[C@H](O)CC[C@@](C)(O)[C@@H](OC(=O)N2CCC([N+]3(C)CCCCC3)CC2)/C=C/[C@@H]1C.[I-] [Cpd. 14] | 53.3 | −70 | >1000 | 51.4
11 | – | CC[C@H](O)[C@@H](C)[C@H]1O[C@@H]1C[C@H](C)/C=C/C=C(\C)[C@H]1OC(=O)C[C@H](O)CC[C@@](C)(O)[C@@H](OC(=O)N(C)C2CC[N+](C)(C)CC2)/C=C/[C@@H]1C.[I-] [Cpd. 15] | 234.8 | −53 | >1000 | 117.0
12 | – | CC[C@H](O)[C@@H](C)[C@H]1O[C@@H]1C[C@H](C)/C=C/C=C(\C)[C@H]1OC(=O)C[C@H](O)CC[C@@](C)(O)[C@@H](OC(=O)N2C[C@H]3C[C@@H]2C[N+]3(C)C)/C=C/[C@@H]1C.[I-] [Cpd. 16] | 1746 | −27 | >1000 | >1000
13 | – | CC[C@H](O)[C@@H](C)[C@H]1O[C@@H]1C[C@@](C)(O)/C=C/C=C(\C)[C@H]1OC(=O)C[C@H](O)CC[C@@](C)(O)[C@@H](OC(=O)N2CC[N+](Cc3ccccc3)(C3CCCCCC3)CC2)/C=C/[C@@H]1C.[Br-] [Cpd. 18] | 139.2 | −55 | – | 162
14 | – | C=CC[N+]1(C2CCCCCC2)CCN(C(=O)O[C@H]2/C=C/[C@H](C)[C@@H](/C(C)=C/C=C/[C@](C)(O)C[C@H]3O[C@@H]3[C@H](C)[C@@H](O)CC)OC(=O)C[C@H](O)CC[C@@]2(C)O)CC1.[Br-] [Cpd. 19] | 808.7 | −45 | – | 551
15 | – | C=CC[N+]1(C2CCCCCC2)CCN(C(=O)O[C@H]2/C=C/[C@H](C)[C@@H](/C(C)=C/C=C/[C@](C)(O)C[C@H]3O[C@@H]3[C@H](C)[C@@H](O)CC)OC(=O)C[C@H](O)CC[C@@]2(C)O)CC1.[I-] [Cpd. 20] | 316.9 | −67.5 | – | 289
16 | – | CCC(=O)C(C)C1OC1CC(C)(O)C=CC=C(C)C1OC(=O)CC(O)CCC(C)(O)C(OC(=O)N2CC[N+](C)(C3CCCCCC3)CC2)C=CC1C.[I-] (stereo not shown) [Cpd. 25] | 10000 | – | >5500 | 5500.0
17 | – | CC[C@H](O)[C@@H](C)[C@H]1O[C@@H]1C[C@H](C)/C=C/C=C(\C)[C@H]1OC(=O)C[C@H](O)CC[C@@](C)(OC(=O)N2CC[N+](C)(C3CCCCCC3)CC2)[C@@H](OC(C)=O)/C=C/[C@@H]1C.[I-] [Cpd. 26] | 5305 | – | >10000 | 1491.0
18 | – | CC[C@H](O)[C@@H](C)[C@H]1O[C@@H]1C[C@H](C)/C=C/C=C(\C)[C@H]1OC(=O)C[C@H](O)CC[C@@](C)(OC(=O)N2CC[N+](C)(C(C)C)CC2)[C@@H](OC(C)=O)/C=C/[C@@H]1C.[I-] [Cpd. 27] | 1115 | −56 | >10000 | 6781.0
19 | – | CC[C@H](O)[C@@H](C)[C@H]1O[C@@H]1C[C@H](C)/C=C/C=C(\C)[C@H]1OC(=O)C[C@H](O)CC[C@@](C)(OC(=O)N2CC[N+](C)(C)CC2)[C@@H](OC(C)=O)/C=C/[C@@H]1C.[I-] [Cpd. 28] | 413.3 | −31 | >1000 | 456.0
20 | – | CC[C@H](O)[C@@H](C)[C@H]1O[C@@H]1C[C@@](C)(O)/C=C/C=C(\C)[C@H]1OC(=O)CCCCC[C@@H](OC(=O)N2CC[N+](C)(C3CCCCCC3)CC2)/C=C/[C@@H]1C.[I-] [Cpd. 31] | 2458 | −22 | >10000 | 3285
